According to patent publication US8278033B2, “Efficient well being assessment and improved treatment protocol” (priority 2008, dated 2012):
Several values for one entry are separate records, joined by “and”; a condition that tells them apart may be missing. Identical values can stand only once.

Legend:
[1] = system: tumor cells; test: Direct antitumor (AT) score on slides of tumor cell cultures; assay type: cell-based, human; settings: direct antitumor effects; concentrations as in Table 1
Procedure: (§1) Solid tumors are minced to pieces smaller than 1 mm (small enough to be aspirated into a standard disposable 10 ml pipette) with high quality curved surgical scissors. Medium in which said tumors may have been transported is reserved, along with the supernatant from the tissue mince. Scissor-minced tumor pieces are digested with collagenase/DNase in RPMI-1640 containing antibiotics and 10% fetal calf serum. Specimens are digested in 50 ml disposable polypropylene centrifuge tubes, assisted by gentle mixing with plastic-coated, magnetic stirring bars over a stirring plate. Specimens are thusly mixed until complete gross digestion has taken place—typically about 2-3 hours for a 1-3 gram specimen. Cytospin slides are then prepared from all cell fractions (transport medium, supernatant from tissue mince, and enzyme digestate), and stained with fast green-H&E, as described previously (Weisenthal, et al., “A Novel Dye Exclusion Method for Testing in vitro Chemosensitivity of Human Tumors,” Cancer Res. (1983) 43:749-757).
To assay for endothelial cells are mixed with, for example, 10% (volume/volume) or, for example, 1% (volume/volume) or intermediate percentages of antiangiogenic drug containing solution or vehicle control (most typically 0.9% NaCl). Final volume of cell suspension/drug solution (or vehicle) plated for culture can be 0.12 ml. Culturing is in polypropylene round bottom, 96-well culture dishes in a humidified 37° C. incubator for a standardized duration of time.
Cells are cultured with the index concentration of each drug and, if desired, with dilutions of the index concentration, where the index concentration is determined from training set assays or from the literature. Negative controls generally consist of 0.9% NaCl, and/or the vehicle in which an antiangiogenic drug is dissolved. Replicate 96-well plates are tested.
(§2) For this determination, the results provided in Table 1 are 10× multiples of the scoring system of the previous paragraph.
(§3) The scores provided in FIG. 2 were multiplied by 10 and averaged to give an anti-vascular score (AVS) shown in column 2; the average AVS for the vehicle alone (VAVS) is shown in column 3 and the level of the statistical significance of their difference is shown in column 4. The AVS score was corrected for the effect of vehicle by subtraction as shown in column 5. The antitumor score (AT) is shown in column 6.

[2] = system: endothelial cells; test: Anti-vascular score (AVS) on Fast Green/H&E slides of tumor cell cultures, averaged over paired comparisons; assay type: cell-based, human; set-up: key to Anti-Vascular Score (AVS) (Avg): 10x the 0+ to 5+ anti-microvascular score (max 50); key to AVS minus VAVS (Avg): AVS minus vehicle AVS, on 10x the 0+ to 5+ scale; settings: for Anti-Vascular Score (AVS) (Avg): 10x multiples of the 0+ to 5+ score, average of N paired comparisons, bevacizumab 2.5 mg/ml, DMSO 0.5% + EtOH 0.5%, cisplatin 3.3, sunitinib 8.35, gefitinib 22.35, erlotinib 89.4, sorafenib 12.5, imatinib 12.5 μg/ml; for AVS minus VAVS (Avg): AVS corrected for the effect of vehicle by subtraction; for AVS minus VAVS (Avg) / (AVS − VAVS)/AT Ratio (Avg): concentrations as in Table 1; for (AVS − VAVS)/AT Ratio (Avg): ratio of vehicle-corrected AVS to antitumor score
Procedure: as §1
Final volume of cell suspension/drug solution (or vehicle) plated for culture can be 0.12 ml. Culturing is in polypropylene round bottom, 96-well culture dishes in a humidified 37° C. incubator for a standardized duration of time.
Cells are cultured with the index concentration of each drug and, if desired, with dilutions of the index concentration, where the index concentration is determined from training set assays or from the literature. […] Replicate 96-well plates are tested.
The various drugs were rated by scoring on a 0+ to 5+ scale for the anti-microvascular effects, with 5+ being the highest possible score. […] The “nib” drugs are kinase inhibiting drugs.
as §2, §3
Finally, the ratio of AVS (corrected for the effect of vehicle) to the antitumor score is shown in the last column.

[3] = system: non-Hodgkin's Lymphoma (NHL) cells; test: Direct antitumor cell effects in non-Hodgkin's Lymphoma lymph node biopsy culture; assay type: cell-based, human; settings: NHL lymph node biopsy sample, FIG. 6
Description: (§4) A lymph node biopsy was obtained from a non-Hodgkin's Lymphoma patient and processed and stained as described above. […] The cells can also be imaged using publicly available “ImageJ” software available from the National Institutes of Health (NIH) to assist quantitation. The image is converted to 8-bit black and white threshold gated to paint only the dead endothelial cells.
(§5) The objective, automated ImageJ scores for both individual gated features and also for total area (originally in pixels squared) is shown. The raw scores for the gated features (putative dead endothelial cells) are normalized for uneven cell distributions by image analyzing each area twice: first with the detection threshold set to gate only the features of interest (putative dead endothelial cells) and then again to detect all features on the slide (this would be analogous to normalizing gene copy to total DNA in cell extracts). Shown additionally are the subjective (0+ to 5+) manual anti-vascular scores which were obtained one month before the installed the ImageJ software was installed. Shown additionally are the direct antitumor cell effects of each of the drugs and solvents tested.

[4] = system: endothelial cells; test: Anti-microvascular effects in non-Hodgkin's Lymphoma lymph node biopsy culture (ImageJ and manual scores); assay type: cell-based, human; settings: for anti-microvascular activity (in words) / concentration at which anti-angiogenic cell effects were achievable: NHL lymph node biopsy sample; for anti-microvascular activity (in words): FIG. 6; for concentration at which anti-angiogenic cell effects were achievable: FIG. 7
Description: as §4
The raw scores for the gated features (putative dead endothelial cells) are normalized for uneven cell distributions by image analyzing each area twice: first with the detection threshold set to gate only the features of interest (putative dead endothelial cells) and then again to detect all features on the slide (this would be analogous to normalizing gene copy to total DNA in cell extracts).

[5] = system: endothelial cells; test: Endothelial cell killing by drugs and combinations in a poorly differentiated breast cancer specimen; assay type: cell-based, human; settings: for effectiveness in endothelial cell killing (in words): Fast Green/H&E
Description: A specimen of poorly differentiated breast cancer was used in the procedures set forth in the previous examples and tested with various drugs and drug combinations as described above.

[6] = system: endothelial cells; test: Anti-microvascular effect scoring, Fast Green/H&E stained pancreatic carcinoid tumor suspension culture; assay type: cell-based, human
Procedure: as §1
Final volume of cell suspension/drug solution (or vehicle) plated for culture can be 0.12 ml. […]
Cells are cultured with the index concentration of each drug and, if desired, with dilutions of the index concentration, where the index concentration is determined from training set assays or from the literature. […]

[7] = system: vascular endothelial growth factor (VEGF); test: Level of VEGF in tumor cell cultures (optical density 450 nm minus 570 nm); assay type: cell-based, human
Procedure: The observed ability of EtOH/DMSO to effect killing of microvascular/endothelial cells may be due to the ability of these solvents to reduce the levels of VEGF in cell culture. It is known that tumor cells secrete VEGF and VEGF is needed, for the growth of neovasculature. Accordingly, a number of tumor cell cultures were treated with these solvents. The level of VEGF in the cultures was measured by subtracting the optical density at 570 nm from the optical density of 450 nm.
For tumor samples preserved in 10% DMSO, only very low levels of VEGF were observed. […] Of particular interest are the cells from Patient 6, shown at the end of the table.

[8] = system: tumor cells; settings: microaggregates of tumor biopsies, WO 2007/075440; cited from earlier work
[9] = system: endothelial cells; test: Endothelial cell death in cultured peripheral blood chronic lymphocytic leukemia cells; assay type: cell-based, human; settings: peripheral blood CLL cells cultured 4 days, 2.5 mg/ml
Description: They are readily apparent as refractile, angular small cells of smaller dimension than the surrounding cells. These cells are about one-third the size of lymphocytes and are about 3μ in diameter.

[10] = system: endothelial cells; test: ImageJ quantitation of dead endothelial cells in cultured lymph samples; assay type: cell-based, human; settings: all of the lymphoma patients
Description: as §4, §5
Lymph samples from five lymphoma patients and two normal volunteers were cultured and stained as described above. […] The quantitation of results was as described in Example 4 using ImageJ software.

[11] = system: endothelial cells; settings: microaggregates of tumor biopsies, WO 2007/075440; cited from earlier work

Compound | Anti-Tumor (AT) Score (Avg) [1] | Anti-Vascular Score (AVS) (Avg) [2] | AVS minus VAVS (Avg) [2] | (AVS − VAVS)/AT Ratio (Avg) [2] | direct antitumor activity (in words) [3] | anti-microvascular activity (in words) [4] | also measured
C#Cc1cccc(Nc2ncnc3cc(OCCOC)c(OCCOC)cc23)c1 [Erlotinib, erlotinib] | 22.5 | 16.2 | 4.2 | 0.19 | to a lesser extent, erlotinib acted directly on tumor cells | comparable to those of vehicle alone | effectiveness in endothelial cell killing (in words) [5]: None appeared particularly effective
COc1cc2ncnc(Nc3ccc(F)c(Cl)c3)c2cc1OCCCN1CCOCC1 [Gefitinib, gefitinib] | 28.5 | 8.3 | 4.5 | 0.16 |  |  | anti-microvascular effects score (0+ to 5+ scale) ([6]; pancreatic carcinoid tumor suspension culture, bevacizumab at 2.5 mg/ml, Fast Green/H&E): 0
Cc1ccc(NC(=O)c2ccc(CN3CCN(C)CC3)cc2)cc1Nc1nccc(-c2cccnc2)n1 [Imatinib, imatinib] | 23.6 |  | 2.8 |  | acted directly on tumor cells | comparable to those of vehicle alone | effectiveness in endothelial cell killing (in words) [5]: None appeared particularly effective
CCO [ethanol] |  |  |  |  |  |  | concentration at which anti-angiogenic cell effects were achievable [4]: 0.125 % of the final medium
COc1cccc2c1C(=O)c1c(O)c3c(c(O)c1C2=O)C[C@@](O)(C(=O)CO)C[C@@H]3O[C@H]1C[C@H](N)[C@H](O)[C@H](C)O1 [doxorubicin] |  |  |  |  | direct antitumor effects | relatively ineffective as anti-microvascular agents | 
C[S+](C)[O-] [DMSO] |  |  |  |  |  |  | concentration at which anti-angiogenic cell effects were achievable [4]: 0.125 % of the final medium
CNC(=O)c1cc(Oc2ccc(NC(=O)Nc3ccc(Cl)c(C(F)(F)F)c3)cc2)ccn1 [Sorafenib, sorafenib] | 28.7 |  | 1.4 |  | acted directly on tumor cells | comparable to those of vehicle alone | 
bevacizumab | 12.9 | 24.7 | 19.7 |  | essentially no direct antitumor effects |  | 450-570 O.D. (level of VEGF) ([7]; Pt 1 cells (Merkel tumor, 10% DMSO cryopreserved), 1.25 mg/ml, wells #1-#3, listed as Bev): 0.054 and 0.059; 450-570 O.D. (level of VEGF) ([7]; Pt 1 cells (Merkel tumor, 10% DMSO cryopreserved), 2.5 mg/ml, wells #1-#3, listed as Bev): 0.051 and 0.052 and 0.054; 450-570 O.D. (level of VEGF) ([7]; Pt 2 cells (ovarian, 10% DMSO cryopreserved), 1.25 mg/ml, wells #1-#3, listed as Bev): 0.059 and 0.055 and 0.054; 450-570 O.D. (level of VEGF) ([7]; Pt 2 cells (ovarian, 10% DMSO cryopreserved), 2.5 mg/ml, wells #1-#3, listed as Bev): 0.052 and 0.056 and 0.054; 450-570 O.D. (level of VEGF) ([7]; Pt 3 cells (breast, fresh), 2.5 mg/ml, wells #1-#2, listed as Bev): 0.056 and 0.059; 450-570 O.D. (level of VEGF) ([7]; Pt 4 cells (NHL, fresh), 1.25 mg/ml, wells #1-#2, listed as Bev): 0.074 and 0.068; 450-570 O.D. (level of VEGF) ([7]; Pt 4 cells (NHL, fresh), 2.5 mg/ml, wells #1-#2): 0.055; 450-570 O.D. (level of VEGF) ([7]; Pt 5 cells (breast, fresh), 2.5 mg/ml, well #1): 0.053; 450-570 O.D. (level of VEGF) ([7]; Pt 6 cells (breast, fresh), 1.25 mg/ml, well #1): 0.063; 450-570 O.D. (level of VEGF) ([7]; Pt 6 cells (breast, fresh), 2.5 mg/ml, well #1): 0.052; levels of VEGF (in words) ([7]; fresh breast tumor cells, untreated levels off-scale): could be brought to 0; effect on tumor cells (in words) [8]: tumor cells remain unaffected; endothelial cell death [9]: caused endothelial cell death; visibility of endothelial cells (in words) [10]: greatly enhanced; dead endothelial cells (200x view) ([4]; NHL lymph node biopsy cells cultured 4 days): presence of dead endothelial cells is readily apparent; anti-microvascular score ([5]; drug alone): +1; effect on endothelial cells (in words) [11]: endothelial cells showing up dead; endothelial cell death (appearance after Fast Green/H&E) ([6]; pancreatic carcinoid tumor, 96 hours in suspension culture, 2.5 mg/ml): resulting in endothelial cell death
N.N.[Cl][Pt][Cl] [Cisplatin] | 59.2 | 4.5 | 0.6 | 0.01 |  |  | 
CCN(CC)CCNC(=O)c1c(C)[nH]c(/C=C2\C(=O)Nc3ccc(F)cc32)c1C [Sunitinib, sunitinib] | 25.8 | 9.5 | 4.9 | 0.19 |  |  | 
